According to patent US9428465B2, “Acid ceramidase inhibitors and their use as medicaments” (FONDAZIONE ISTITUTO ITALIANO DI TECHNOLOGIA, priority 2012, dated 2016):
pIC50: −log10 of the molar value.

Key:
[1] = biological target: rat acid ceramidase (rAC) (Rattus norvegicus (Rat), UniProt Q6P7S1); assay: Rat acid ceramidase (rAC) enzymatic assay, LC/MS of lauric acid; assay type: biochemical; conditions: rat acid ceramidase, 100 μM N-lauroyl ceramide, pH 4.5
Description: A lysosomal rat acid ceramidase (rAC) protein preparation was obtained from cells stably expressing rAC resuspended in 20 mM Tris HCl (pH 7.5) with 0.32 M sucrose. Samples were sonicated and centrifuged at 800×g for 15 min at 4° C. Supernatants were then centrifuged at 12,000×g for 30 min at 4° C. Pellets were re-suspended in PBS pH 7.4 and subjected to 2 freeze-thaw cycles at −80° C. The suspension was finally centrifuged at 105,000×g for 1 hr at 4° C. and the supernatant containing rAC was then used in the enzymatic assay.
r-AC protein samples were pre-incubated with various concentrations of test compounds or vehicle control in 100 mM NaH2PO4/citrate buffer pH 4.5, 0.1% Nonidet P-40, 3 mM DTT for 30 min at 37° C. Samples were incubated with 100 μM N-lauroyl ceramide (Nu-Chek Prep, Elysian, Minn.) at 37° for 30 min. The reaction was stopped by addition of a mixture of chloroform/methanol (2:1 vol/vol) containing 1 nmol of heptadecanoic acid (HDA; NuChek Prep). The organic phases were collected, dried under nitrogen, and analyzed by LC/MS in the negative-ion mode using heptadecanoic acid (HDA) as internal standard (m/z=199 for lauric acid, m/z=269 for HDA). HDA was eluted on an XDB Eclipse C18 column isocratically at 2.2 mL/min for 1 min with a solvent mixture of 95% methanol and 5% water, both containing 0.25% acetic acid, and 5 mM ammonium acetate. The column temperature was 50° C. Electrospray ionization (ESI) was in the negative mode, capillary voltage was 4 kV, and fragmentor voltage was 100 V. Nitrogen was used as drying gas at a flow rate of 13 L/min and at a temperature of 350° C. Nebulizer pressure was set at 60 psi. We monitored [M-H]− in the selected-ion monitoring (SIM) mode using HDA as internal standard.
Inhibition of rAC activity was calculated as a reduction of lauric acid in the samples compared to vehicle controls. Median inhibitory concentration (IC50) values were calculated by non-linear regression analysis of log [concentration]/inhibition curves using. GraphPad Prism 5 (GraphPad Software, Inc., CA, USA) applying a standard slope curve fitting.

[2] = test system: human colon adenocarcinoma cell line SW403; assay: Ceramide levels in SW403 cells (lipid extraction, LC/MS); assay type: cell-based; conditions: 3 μM, 3 hrs, vs. vehicle
Description: Lipids were extracted using a chloroform/methanol mixture (2:1 vol/vol, 3 mL) containing internal standards. The organic phases were collected, dried under nitrogen, and dissolved in methanol/chloroform (3:1 vol/vol) for LC/MS analyses.
Ceramides were analyzed by LC/MS^n, using a 1100-LC system (Agilent Technologies) equipped with an Ion Trap XCT and interfaced with ESI (Agilent Technologies). They were separated on a Poroshell 300 SB C18 column (2.1×75 mm i.d., 5 μm; Agilent Technologies) maintained at 30° C. A linear gradient of methanol in water containing 5 mM ammonium acetate and 0.25% acetic acid (from 80% to 100% of methanol in 3 man) was applied at a flow rate of 1 mL/min. […]
Tissue-derived ceramides were identified by comparison of their LC retention times and MS^n fragmentation patterns with those of authentic standards (Avanti Polar Lipids). Extracted ion chromatograms were used to quantify myristoyl ceramide (C140, m/z 510.5>492.5>264.3), palmitoyl ceramide (C16:0, m/z 538.5>520.3>264.3), stearoyl ceramide (C18:0 m/z 566.5>548.3>264.3), lignoceroylceramide (C24:0 m/z 650.5>632.3>264.3), nervonoylceramide (C24:1 m/z 648.5>630.3>264.3) and using lauroyl ceramide standard (m/z 482.5>464.5>264.3). […]

[3] = test system: SW403 cells; assay: SW403 cell viability, trypan blue assay; assay type: cell-based, human; conditions: prolonged (72 hrs) treatment, concentration-response, FIGS. 2A and 2B
Description: (§1) Cells were seeded in 12- or 96-well plates in complete medium 24 hrs before treatment and then incubated for 24 hrs (single treatment) or 72 hrs (multiple treatments) with different drug concentrations in media without serum. Cell viability was then evaluated.
The trypan blue exclusion assay is based on the principle that viable cells have intact cell membrane and can therefore exclude the trypan blue dye. Cell viability was measured after 24 hrs incubation with the drug. Cells were harvested, centrifuged at 1200 rpm for 10 min and pellets re-suspended in PBS. To evaluate viability, cells were diluted 1:1 with 0.4% trypan blue dye (Sigma), incubated for 1 min and white (viable) cells were counted with a hemacytometer.

[4] = test system: SW403 cells; assay: SW403 cell viability, MTT assay; assay type: cell-based, human
Description: as §1
Alternatively, cell viability was assessed measuring mitochondrial functionality by the MIT assay, which is based on the reduction of the soluble tetrazolium salt MTT [(3-(4,5-dimethylthiazol-2-yl)-2,5-diphenyltetrazolium bromide] into insoluble formazan by mitochondria. Briefly, after treatment, cells were washed with PBS and incubated with 0.5 mg/ml, MTT for 2 hrs at room temperature, MTT reduction was quantified by absorbance at 570 nm using a UV-visible plate reader.

[5] = test system: SW403 cells; assay: Isobolographic analysis of combined treatment of SW403 cells (ED50, trypan blue assay); assay type: cell-based, human
Description: Interaction between drugs was assessed by isobolographic analysis, based on the concept of dose-equivalence which follows from the dose effect curves of the individual drugs (Tallarida R I, Interactions between drugs and occupied receptors. Pharmacol. Ther. 2007, 113, 197-209; Tallarida R J, Raffa R B, The application of drug dose equivalence in the quantitative analysis of receptor occupation and drug combinations. Pharmacol. Ther. 2010; 127, 165-174). Specifically, the individual drugs' potency and efficacy allow calculating the expected effect of a combination of the two drugs.
In the experiment of combined treatment, isobolograms were constructed by plotting on vertical and horizontal axes the ED50 data of the single drugs measured by trypan blue assay after subcronic treatment for 72 hrs. The straight line with axial intercepts represents the isobole of additivity and allows calculating the theoretical additive dose. Synergism is indicated by an observed pair (x, y) that plots below the isobole for the specified effect, whereas sub-additivity is indicated when an observed pair (x, y) plots above the isobole.

[6] = SW403 cells, 72 hrs, isobole of additivity, higher than the experimental values

Sequence of rat acid ceramidase (rAC) (Q6P7S1 142-394): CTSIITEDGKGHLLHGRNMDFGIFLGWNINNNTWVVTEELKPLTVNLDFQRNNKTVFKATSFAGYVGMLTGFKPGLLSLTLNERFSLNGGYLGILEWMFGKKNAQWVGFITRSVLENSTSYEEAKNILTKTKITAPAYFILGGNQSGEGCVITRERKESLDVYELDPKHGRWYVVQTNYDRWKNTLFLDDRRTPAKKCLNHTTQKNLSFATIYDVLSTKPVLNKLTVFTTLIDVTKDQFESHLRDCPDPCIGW
Sequence of rat acid ceramidase (rAC) (Q6P7S1 21-141): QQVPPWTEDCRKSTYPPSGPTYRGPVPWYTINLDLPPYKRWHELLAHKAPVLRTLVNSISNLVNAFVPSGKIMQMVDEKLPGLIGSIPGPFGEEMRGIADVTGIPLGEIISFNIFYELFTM

pIC50 [1]: 7.29
Compound: CCCCCCNC(=O)n1cc(Br)c(=O)[nH]c1=O [Example 5, 5-bromo-N-hexyl-2,4-dioxo-pyrimidine-1-carboxamide]
levels of C14:0, C16:0 and C18:0 ceramide [2]: increased
SW403 cell viability (trypan blue assay) [3]: reduction of the viability
interaction with 5FU in reducing cell viability (MTT assay) ([4]; 72 hrs, compound 30 μM + 5FU 300 nM): synergistic effect
SW403 cell viability (MTT assay) ([4]; sub-chronic treatment 72 hrs, compounds 30 μM, 5FU 300 nM): reduced cell viability
theoretical dose (Th) to be used with 20 nM taxol to obtain an additive effect [5, 6]: 9.5 µM
theoretical dose (Th) to be used with 300 nM 5FU to obtain an additive effect [5, 6]: 14.9 µM
interaction with taxol in reducing viability of SW403 cells (isobologram) ([5]; prolonged treatment, 20 nM taxol, trypan blue ED50): synergistic effect
interaction with 5-fluorouracil in reducing viability of SW403 cells (isobologram) ([5]; prolonged treatment, 300 nM 5FU, trypan blue ED50): synergistic effect
